The source of these data is US20140128357A1, “METHODS OF PRODUCING AND USING BRASSINOSTEROIDS TO PROMOTE GROWTH, REPAIR AND MAINTENANCE OF SKELETAL MUSCLE AND SKIN” (Rutgers University, priority 2010, published 2014).

For one data set, the system named is rats. Particulars: orally or subcutaneously; cited from earlier work.
The subject of another data set is mice. Conditions: orally or subcutaneously; cited from earlier work.
The test system of data set [1] is NIH 3T3 murine fibroblast cell line. Briefly: Cytotoxicity, MTT assay in 3T3 fibroblasts. It is filed as cell-based, mouse. How it is done:
(§1) FIG. 9. Cell survival curves as measured by MTT assay for brassinosteroids 1-9 against the murine fibroblast cell line NIH-3T3. Cells were incubated with various concentrations of brassinosteroids (0.3-30 μM) for 24 h at 37° C. The mean absorbance of the control cells represented 100% cell proliferation, and the mean absorbance of treated cells was related to control values to determine sensitivity. Error bars represent standard error (n=6) from mean cell proliferation as determined by repeated experiments.
(§2) In various aspects, cell viability is measured and the effects of doses of compound and test reagents are tested in cell lines. In some aspects, cell viability was measured by the MTT (3-(4,5-Dimethylthiazol-2-yl)-2,5-diphenyltetrazolium bromide) assay in triplicate (Mosmann et al., J. Immunol. Methods 65:55-63, 1983) and quantified spectrophotometrically at 550 nm using a microplate reader (Molecular Devices, Sunnyvale, Calif.).
(§3) 3T3 fibroblasts were seeded in a 96-well flat bottom plate at a density of 1×10^4 cells/well. Cell viability was measured by an MTT (3-(4,5-Dimethylthiazol-2-yl)-2,5-diphenyltetrazolium bromide) assay in triplicate (0.3-30 μM of test substance for […]) essentially as described by Mosmann (J. Immunol. Methods 65, 55-63, 1983) and quantified spectrophotometrically at 550 nm using a microplate reader (Molecular Devices, Sunnyvale, Calif.). […] For cell proliferation studies, cells were treated in triplicate with 0.1-10 μM of test substance for 24 h and assayed using a BrdU (5-bromo-2′-deoxyuridine) kit from Amersham (Uppsala, Sweden).
In general terms: Tetrazolium dyes change colour on reduction, which living cells bring about.

A short description of data set [2]: Cytotoxicity, MTT assay in 3T3 fibroblasts. The data set is classed as cell-based, mouse. Conditions: mouse. As for the experimental part:
as §1, §2, §3

Data set [3] has as its system L6 rat myotubes. Briefly: Protein synthesis, [3H]-phenylalanine incorporation in myotubes. Particulars: 10 μM, 4 h. The data set is classed as cell-based. How it is done: (§4) In some aspects, cell culture experiments were carried out. Rat L6 skeletal muscle cell line CRL-1458 was obtained from ATCC (Manassas, Va.). Myoblasts were routinely maintained in Dulbecco's modified Eagle's medium (DMEM) containing 10% FBS and 0.1% penicillin-streptomycin at 37° C. and 5% CO2. Cells were subcultured into 24-well plates for protein synthesis, degradation, and cell viability studies and into 6-well plates for Western blot analyses (Greiner Bio One, Monroe, N.C.). Once cells reached 90% confluence, differentiation was induced by lowering the serum concentration to 2%, and medium was changed every 2 days. After 7-9 days of culture the myoblasts had fused into multinucleated myotubes (Mandel et al., Nature 251:618-620, 1974). NIH 3T3 murine embryonic fibroblast cell line (ATCC #CCL-92) was maintained in DMEM and 10% FBS at 37° C. in 5% CO2, and passaged every 3-4 days.
In various aspects, protein synthesis is measured to determine the effect of brassinosteroid on a particular protein. All known methods for measuring protein synthesis are included in the methods of the disclosure. In brassinosteroid dose response studies, fully differentiated myotubes were washed with serum-free DMEM and treated in triplicate with vehicle (0.1% ethanol), increasing concentrations of HB, or 6.5 nM of insulin-like growth factor-1 (IGF-1) as a positive control. Compounds were added to serum-free medium containing 0.5 μCi/mL [^3H]-phenylalanine and incubated for 4 h. For the HB time course study, fully differentiated myotubes were treated with 3 μM HB for 1-24 h using the same culture conditions. The incubation was stopped by placing cells on ice, discarding the medium, and washing the cells extensively with ice-cold PBS to remove the non-incorporated radiolabel. Proteins were precipitated with 5% trichloroacetic acid and dissolved in 0.5N NaOH (Montgomery et al., Methods Cell. Sci. 24:123-129, 2002). Specific radioactivity of protein-bound phenylalanine was quantified using liquid scintillation counter LS 6500 (Beckman Coulter, Fullerton, Calif.) and normalized to mg of total protein determined by BCA protein assay (Pierce Biotechnology, Rockford, Ill.).
The bioactivity of HB and its analogs was evaluated by measuring increases in protein synthesis in the L6 rat skeletal muscle cells in vitro. Cells were incubated for 4 h with [^3H]-phenylalanine and treated in triplicate with vehicle (0.1% ethanol) or test compound (10 μM), and protein synthesis was measured as incorporation of [^3H]-phenylalanine into protein normalized by total protein (Table 3). Under these conditions, both HB and (22S,23S)-homocastasterone increased protein synthesis by 37.2±5.9% (p<0.001) and 41.0±2.7% (p<0.001), respectively. This protein synthesis increase compared favorably to the biological activity of IGF-1 at 6.5 nM (42.5±4.5%, p<0.001) that served as a positive control in this assay. Removal of the 2α-hydroxyl group and fluorination at C-3 in the A ring (compound IDs 3-4 in Table 3) led to about a 50% decrease in bioactivity (24.6±5.3%, p<0.01 and 22.5±2.7%, p<0.01, respectively) compared to the positive control. However, there was still an increase in protein synthesis. […] Modifications in the side chain (compound IDs 7-9 in Table 3) abolished the activity.

Data set [4] relates to L6 rat myotubes. Briefly: Protein degradation, release of acid-soluble [3H]-phenylalanine. The data set is classed as cell-based. Particulars: 10 μM, 4 h. As for the experimental part: as §4, with “After 7-9 days of culture the myoblasts had fused into multinucleated myotubes (Mandel et al., Nature 251:618-620, 1974).” left out
In various aspects, protein degradation is measured to determine the effect of brassinosteroid on a particular protein. All known methods for measuring protein degradation are included in the methods of the disclosure. The effect of brassinosteroids on protein degradation was investigated in fully differentiated myotubes as described by Fawcett et al. (Arch. Biochem. Biophys. 385:357-363, 2001) with slight modifications. Fully differentiated myotubes were incubated for 16 h to allow labeling of cellular proteins with 1.5 μCi/mL [^3H]-phenylalanine. […] The incubation was stopped by placing the cells on ice, and protein in the medium was precipitated with 5% trichloroacetic acid. Specific radioactivity of protein-free phenylalanine was quantified using liquid scintillation counter LS 6500 (Beckman Coulter, Fullerton, Calif.) and normalized to mg of total cell protein determined by BCA protein assay (Pierce Biotechnology, Rockford, Ill.).
The bioactivity of HB and its analogs (as shown in Table 3) were also evaluated by measuring decreases in protein degradation in the L6 rat skeletal muscle cells in vitro. Cells were labeled overnight with [^3H]-phenylalanine and subsequently treated for 4 h in triplicate with vehicle (0.1% ethanol) or test compound (10 μM), and protein degradation was assessed as release of acid-soluble [^3H]-phenylalanine into the media normalized by total protein (Table 3).

Data set [5] concerns 3T3 Swiss fibroblast monolayers. Briefly: Scratch wound closure in vitro. It is filed as cell-based, mouse. Particulars: for Scratch wound closure at 5 μM, % of control: 12 h (Table 6). As for the experimental part: 3T3 fibroblasts were seeded into 24-well dishes at a concentration of 3×10^5 cells/ml and cultured to nearly confluent cell monolayers. On the day of the experiment, a linear wound was generated in the monolayer with a sterile 100 μl plastic pipette tip and any cellular debris was removed by washing cells once with sterile PBS. Fresh DMEM medium containing vehicle (0.1% ethanol), positive control (0.5% FBS), or various concentrations of the fractions, sub-fractions or pure compounds was added to a set of 3 wells per dose and incubated for 12 h at 37° C. with 5% CO2. Cells were then visualized with 20 μl of 10% methylene blue in PBS for 5 min. Three representative images of the scratched areas from each well were photographed at 0 and 12 h to estimate the scratch wound closure. Images were analyzed using ImageJ program (NIH, Bethesda, Md.) and % wound closure was calculated relative to vehicle control and was reported as wound closure % over control (Table 4). 3T3 Swiss fibroblast were seeded into 24-well tissue culture at a concentration of 3×10^5 cells/ml and cultured to nearly confluent cell monolayers. Then, a linear wound was generated in the monolayer with a sterile 100 μl plastic pipette tip. Any cellular debris was removed by washing with PBS. DMEM medium with vehicle (0.1% ethanol), FBS (1%, positive control), or various concentrations of brassinosteroids were added to a set of 3 wells per dose and incubated for 12 h at 37° C. with 5% CO2. Cells were visualized in 10% methylene blue for 5 minutes. Three representative images from each well of the scratched areas under each condition were photographed to estimate the relative migration of cells at 0 and 12 h post-treatment. Data were analyzed using ImageJ software available online from the National Institutes of Health (rsbweb.nih.gov/ij/) by calculating the percentage of scratch closure at each dose point relative to control.

In another data set the test system is 3T3 mouse fibroblasts. Briefly: Cell proliferation, BrdU assay. The data set is classed as cell-based. Conditions: 24 h. As for the experimental part: as §3
On the technique in general: Dividing cells build labelled thymidine or BrdU into new DNA.

Data set [6] concerns 3T3 Swiss fibroblast monolayers. Particulars: PDGF 2 nM reference treatment, reported previously (Schmidt et al.); cited from earlier work.

What is called IC50 is the concentration that gives 50% inhibition.

Take `CC(C)[C@@H](C)[C@@H](O)[C@H](O)[C@@H](C)[C@H]1CC[C@H]2[C@@H]3COC(=O)[C@H]4C[C@H](O)[C@H](O)C[C@]4(C)[C@H]3CC[C@]12C` [24-Epibrassinolide]: the “median lethal dose (LD50)” value is on record as “higher than 2000 mg/kg” with rats and “higher than 1000 mg/kg” with mice.

With `CC[C@@H](C(C)C)[C@H](O)[C@@H](O)[C@@H](C)[C@H]1CC[C@H]2[C@@H]3CC(=O)[C@H]4C[C@H](F)CC[C@]4(C)[C@H]3CC[C@]12C` [Compound 4, (22S,23S,24S)-3α-fluoro-22,23-dihydroxy-24-ethyl-5α-cholestan-6-one], the “cytotoxicity compared to the original brassinosteroids” value in data set [1] is “increased cytotoxicity”. In addition, the IC50 in data set [2] is around 30 µM. Further, in the data set with L6 rat myotubes [3], the “Protein synthesis (% increase over control)” value is reported as 22.5±2.7%. Also, the “Protein degradation (% decrease over control)” value in the data set with L6 rat myotubes [4] was −16.3 ± 4.2%. Moreover, the “Scratch wound closure at 5 μM, % of control” value in data set [5] was 27.7 ± 4.0 %. Further, the “Wound Closure (% over control)” value in [5] (10 μM, 12 h (Table 4)) amounted to 27.7 ± 4.0 %. In data set [5] (0.1-10 μM, 12 h), the “fibroblast migration activity in words” value is reported as “high activity, similar to HB”.

The compound `CC[C@@H](C(C)C)[C@@H](O)[C@H](O)[C@@H](C)[C@H]1CC[C@H]2[C@@H]3COC(=O)[C@H]4C[C@H](O)[C@H](O)C[C@]4(C)[C@H]3CC[C@]12C` [Compound 7, (22R,23R,24S)-2α,3α-22,23-tetrahydroxy-24-ethyl-B-homo-7-oxa-5α-cholestan-6-one] had an IC50 in [1] above 30 µM. Besides, in the data set on L6 rat myotubes [3], the “Protein synthesis (% increase over control)” value worked out at 13.1 ± 2.4%. Moreover, the “Protein degradation (% decrease over control)” value in the data set with L6 rat myotubes [4] was −14.8 ± 3.8%. For the same compound, in the data set with 3T3 mouse fibroblasts, the “Cell proliferation at 5 μM, % of control” value was 29.1 ± 3.4 %. Also, the “Scratch wound closure at 5 μM, % of control” value in [5] is on record as 16.5 ± 0.5%.

Compound `CC(C)[C@H](C)[C@H](O)[C@@H](O)[C@@H](C)[C@H]1CC[C@H]2[C@@H]3COC(=O)[C@H]4C[C@@H](O)[C@H](O)C[C@]4(C)[C@H]3CC[C@]12C` [Compound 8, (22S,23S,24R)-2α,3α-22,23-tetrahydroxy-24-methyl-B-homo-7-oxa-5α-cholestan-6-one] yielded an IC50 in data set [1] above 30 µM. The “Protein synthesis (% increase over control)” value in the data set with L6 rat myotubes [3] is reported as 4.1 ± 1.7%. In the data set on L6 rat myotubes [4], the “Protein degradation (% decrease over control)” value is on record as −5.4 ± 7.9%. The “Cell proliferation at 5 μM, % of control” value in the data set on 3T3 mouse fibroblasts was 31.9 ± 5.3 %. Besides, in [5], the “Scratch wound closure at 5 μM, % of control” value amounted to 13.2 ± 1.5%.

Regarding `CC(C)C(C)C(O)C(O)C(C)C1CCC2C3COC(=O)C4CC(O)C(O)CC4(C)C3CCC12C` [Compound 9, (22R,23R,24R)-2α,3α-22,23-tetrahydroxy-24-methyl-B-homo-7-oxa-5α-cholestan-6-one], in data set [1], the IC50 was above 30 µM. Moreover, the “Protein synthesis (% increase over control)” value with L6 rat myotubes [3] stood at 11.7 ± 3.9%. Further, in the data set with L6 rat myotubes [4], the “Protein degradation (% decrease over control)” value is −6.7 ± 7.9%. For the same compound, the “Cell proliferation at 5 μM, % of control” value in the data set with 3T3 mouse fibroblasts was 31.0 ± 2.6 %. Besides, the “Scratch wound closure at 5 μM, % of control” value in data set [5] amounted to 8.1 ± 1.6%.

Consider PDGF, for which the “Scratch wound closure, % of control” value in data set [6] was 64.8 ± 1.7 %.
